Data set [1] addresses human D2 receptor (Homo sapiens (Human), UniProt P14416). The data set is described as follows: Radioligand binding assay, [3H]-spiperone, human D2 receptor. The following applies: membranes of HEK293 EBNA cells expressing human D2; 0.7 nM [3H]-spiperone. The procedure, abridged: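 Membranes from HEK293 EBNA cells transiently expressing human D2 were incubated 1 h at RT with ~0.7 nM [3H]-spiperone and ten compound concentrations (10 μM–0.1 nM) in Tris buffer with NaCl, MgCl2, KCl, CaCl2, EDTA, pH 7.4.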

Data set [2] concerns the target human D3 receptor (Homo sapiens (Human), UniProt P35462). Kind of data set: Radioligand binding assay, [3H]-spiperone, human D3 receptor. To be noted: membranes of HEK293 EBNA cells expressing human D3; 0.5 nM [3H]-spiperone. Summed up: (§1)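 Membranes from transiently transfected HEK293 EBNA cells were incubated 1 h at RT with ten compound concentrations (10 μM-0.1 nM) and radioligand: 0.5 nM [3H]-spiperone for D3 (Tris/NaCl/Mg/Ca buffer, pH 7.4) or 1.1 nM [3H]-ketanserin for 5-HT2A (Tris/MgCl2/EGTA, pH 7.4).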

For data set [3], the target named is human 5-HT2A receptor (Homo sapiens (Human), UniProt P28223). The data set is described as follows: Radioligand binding assay, [3H]-ketanserin, human 5-HT2A receptor. The procedure, abridged: as §1
Sequence of human 5-HT2A receptor (P28223 whole entry): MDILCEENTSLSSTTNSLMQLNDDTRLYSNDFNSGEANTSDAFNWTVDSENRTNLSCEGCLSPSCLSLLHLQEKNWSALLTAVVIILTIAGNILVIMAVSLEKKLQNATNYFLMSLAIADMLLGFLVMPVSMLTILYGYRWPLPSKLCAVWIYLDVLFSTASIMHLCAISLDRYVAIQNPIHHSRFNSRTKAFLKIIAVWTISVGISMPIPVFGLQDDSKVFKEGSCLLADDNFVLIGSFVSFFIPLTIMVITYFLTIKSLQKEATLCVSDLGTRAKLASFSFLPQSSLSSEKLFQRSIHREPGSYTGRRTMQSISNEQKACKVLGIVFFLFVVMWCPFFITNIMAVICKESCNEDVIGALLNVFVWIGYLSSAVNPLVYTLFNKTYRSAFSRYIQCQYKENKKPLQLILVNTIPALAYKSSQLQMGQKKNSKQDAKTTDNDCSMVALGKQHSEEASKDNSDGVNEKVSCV
[4] abbreviates: membranes of HEK293 EBNA cells expressing human 5-HT2A, 1.1 nM [3H]-ketanserin.

pKi: −log10 of the molar value. Like-named read-outs stand apart in the source and are kept apart here.

The pKi is the negative decadic logarithm of the Ki, by convention in mol/L. The term melting point denotes the temperature of the solid-liquid transition.

Sequence of human D2 receptor (P14416 whole entry): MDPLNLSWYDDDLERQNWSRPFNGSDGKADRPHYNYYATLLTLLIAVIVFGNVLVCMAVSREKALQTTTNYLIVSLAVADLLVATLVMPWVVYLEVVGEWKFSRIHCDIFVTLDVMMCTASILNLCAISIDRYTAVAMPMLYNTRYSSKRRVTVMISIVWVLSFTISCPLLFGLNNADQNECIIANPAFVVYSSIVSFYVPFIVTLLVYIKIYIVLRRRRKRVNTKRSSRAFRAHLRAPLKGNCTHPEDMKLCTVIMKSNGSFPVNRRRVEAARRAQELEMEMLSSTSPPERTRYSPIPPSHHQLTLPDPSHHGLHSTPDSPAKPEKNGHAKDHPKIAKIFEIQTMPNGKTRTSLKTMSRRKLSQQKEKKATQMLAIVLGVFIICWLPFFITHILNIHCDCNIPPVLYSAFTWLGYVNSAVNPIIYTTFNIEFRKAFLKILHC
Sequence of human D3 receptor (P35462 whole entry): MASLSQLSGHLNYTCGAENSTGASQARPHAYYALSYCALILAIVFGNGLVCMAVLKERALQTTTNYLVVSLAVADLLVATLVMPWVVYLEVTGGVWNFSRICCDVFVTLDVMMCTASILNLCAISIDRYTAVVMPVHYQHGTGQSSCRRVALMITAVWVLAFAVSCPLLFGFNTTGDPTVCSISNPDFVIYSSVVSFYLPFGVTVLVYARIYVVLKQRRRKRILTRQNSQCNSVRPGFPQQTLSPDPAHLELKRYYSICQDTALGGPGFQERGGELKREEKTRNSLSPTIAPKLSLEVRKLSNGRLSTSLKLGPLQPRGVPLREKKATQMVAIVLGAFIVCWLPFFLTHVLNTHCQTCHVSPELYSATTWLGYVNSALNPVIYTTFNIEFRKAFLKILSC

Compound `N#CCC(=O)N[C@H]1CC[C@H](CCN2CCN(c3nccc4c3CCO4)CC2)CC1` [Example 59, trans-2-Cyano-N-(4-{2-[4-(2,3-dihydro-furo[3,2-c]pyridin-4-yl)-piperazin-1-yl]-ethyl}-cyclohexyl)-acetamide] displayed a melting point of 188 °C. The negative logarithm of the Ki (pKi) in data set [1] is 6.15. Further, the negative logarithm of the Ki (pKi) in data set [2] is 8.11. In addition, in data set [3], the negative-log Ki (pKi) was 7.80.

`Cc1cc(C(=O)N[C@H]2CC[C@H](CCN3CCN(c4nccc5c4CCO5)CC3)CC2)on1` [Example 85, 3-Methyl-isoxazole-5-carboxylic acid trans-(4-{2-[4-(2,3-dihydro-furo[3,2-c]pyridin-4-yl)-piperazin-1-yl]-ethyl}-cyclohexyl)-amide]: the melting point was 218 °C. Also, the pKi in data set [1] is 6.40. Also, in data set [2], the pKi is 7.51. In data set [3], the pKi is 7.80.

With `O=C(N[C@H]1CC[C@H](CCN2CCN(c3nccc4c3CCO4)CC2)CC1)c1ccc(C(F)(F)F)cc1` [Example 47, trans-N-(4-{2-[4-(2,3-Dihydro-furo[3,2-c]pyridin-4-yl)-piperazin-1-yl]-ethyl}-cyclohexyl)-4-trifluoromethyl-benzamide], the melting point amounted to 227 °C. In data set [1], the negative logarithm of the Ki (pKi) was 6.06. In data set [2], the negative-log Ki (pKi) was 7.24. Further, the negative logarithm of the Ki (pKi) in data set [3] (setting [4]) is 7.73.

`CCS(=O)(=O)N[C@H]1CC[C@H](CCN2CCN(c3nccc4c3CCO4)CC2)CC1` [Example 49, Ethanesulfonic acid trans-(4-{2-[4-(2,3-dihydro-furo[3,2-c]pyridin-4-yl)-piperazin-1-yl]-ethyl}-cyclohexyl)-amide]: the melting point came out at 224 °C. The pKi in data set [1] is 5.96. The negative-log Ki (pKi) in data set [2] is 7.66. Further, the pKi in data set [3] was 7.75.

On to `O=C(CC1CCCO1)N[C@H]1CC[C@H](CCN2CCN(c3nccc4c3CCO4)CC2)CC1` (mixture of isomers) [Example 64, trans-N-(4-{2-[4-(2,3-Dihydro-furo[3,2-c]pyridin-4-yl)-piperazin-1-yl]-ethyl}-cyclohexyl)-2-rac-(tetrahydro-furan-2-yl)-acetamide], for which the melting point is 181.5 °C. Further, in data set [1], the pKi was 5.90. In addition, in data set [2], the negative logarithm of the Ki (pKi) was 7.62. The negative-log Ki (pKi) in data set [3] (setting [4]) is 7.78.

As for `CC(C)(O)CC(=O)N[C@H]1CC[C@H](CCN2CCN(c3nccc4c3CCO4)CC2)CC1` [Example 87, trans-N-(4-{2-[4-(2,3-Dihydro-furo[3,2-c]pyridin-4-yl)-piperazin-1-yl]-ethyl}-cyclohexyl)-3-hydroxy-3-methyl-butyramide], the melting point is 208 °C. In addition, in data set [1], the pKi was 6.00. Also, the negative logarithm of the Ki (pKi) in data set [2] was 7.67. Further, the negative logarithm of the Ki (pKi) in data set [3] (setting [4]) is 7.60.

Regarding `CO[C@H]1CC[C@H](CC(=O)N[C@H]2CC[C@H](CCN3CCN(c4nccc5c4CCO5)CC3)CC2)CC1` [Example 65, trans-N-(4-{2-[4-(2,3-Dihydro-furo[3,2-c]pyridin-4-yl)-piperazin-1-yl]-ethyl}-cyclohexyl)-2-trans-(4-methoxy-cyclohexyl)-acetamide], the melting point turned out to be 192.5 °C. Also, the pKi in data set [1] was 5.61. Also, the pKi in data set [2] is 7.62. Moreover, the negative logarithm of the Ki (pKi) in data set [3] (setting [4]) is 7.83.

With `CCC(C)C(=O)N[C@H]1CC[C@H](CCN2CCN(c3nccc4c3CCO4)CC2)CC1` (mixture of isomers) [Example 76, trans-N-(4-{2-[4-(2,3-Dihydro-furo[3,2-c]pyridin-4-yl)-piperazin-1-yl]-ethyl}-cyclohexyl)-rac-2-methyl-butyramide], the melting point was 205.5 °C. For the same compound, in data set [1], the negative logarithm of the Ki (pKi) was 6.15. Moreover, the pKi in data set [2] was 7.60. Besides, the negative-log Ki (pKi) in data set [3] (setting [4]) was 7.88.

On to `CC(=O)N[C@H]1CC[C@H](CCN2CCN(c3ncc(C)c4occc34)CC2)CC1` [Example 104, trans-N-(4-{2-[4-(7-Methyl-furo[3,2-c]pyridin-4-yl)-piperazin-1-yl]-ethyl}-cyclohexyl)-acetamide], for which the melting point came to 208 °C. The pKi in data set [1] was 5.84. The negative logarithm of the Ki (pKi) in data set [2] was 7.67. The pKi in data set [3] (setting [4]) was 7.86.

`CC(C)=CC(=O)N[C@H]1CC[C@H](CCN2CCN(c3nccc4c3CCO4)CC2)CC1` [Example 80, 3-Methyl-but-2-enoic acid trans-(4-{2-[4-(2,3-dihydro-furo[3,2-c]pyridin-4-yl)-piperazin-1-yl]-ethyl}-cyclohexyl)-amide] had a melting point of 164.5 °C. In addition, the negative-log Ki (pKi) in data set [1] was 6.70. In addition, the pKi in data set [2] was 7.81. The pKi in data set [3] (setting [4]) is 7.79.

Compound `O=C(C[C@@H]1CCCO1)N[C@H]1CC[C@H](CCN2CCN(c3nccc4c3CCO4)CC2)CC1` [Example 69, trans-N-(4-{2-[4-(2,3-Dihydro-furo[3,2-c]pyridin-4-yl)-piperazin-1-yl]-ethyl}-cyclohexyl)-2-(S)-(tetrahydro-furan-2-yl)-acetamide] had a melting point of 183.5 °C. Moreover, the pKi in data set [1] is 6.07. Also, the negative-log Ki (pKi) in data set [2] was 7.74. Besides, the negative-log Ki (pKi) in data set [3] is 7.60.

In the case of `O=C(N[C@H]1CC[C@H](CCN2CCN(c3nccc4c3CCO4)CC2)CC1)c1ccc(N2CCCCC2)cc1` [Example 56, trans-N-(4-{2-[4-(2,3-Dihydro-furo[3,2-c]pyridin-4-yl)-piperazin-1-yl]-ethyl}-cyclohexyl)-4-piperidin-1-yl-benzamide], the melting point came to 214.5 °C. The pKi in data set [1] is 5.27. Further, the negative logarithm of the Ki (pKi) in data set [2] is 7.35. In addition, in data set [3], the negative logarithm of the Ki (pKi) was 7.72.

In the case of `O=C(CC1(O)CCC1)N[C@H]1CC[C@H](CCN2CCN(c3nccc4c3CCO4)CC2)CC1` [Example 141, trans-N-(4-{2-[4-(2,3-Dihydro-furo[3,2-c]pyridin-4-yl)-piperazin-1-yl]-ethyl}-cyclohexyl)-2-(1-hydroxy-cyclobutyl)-acetamide], the melting point stood at 155 °C. The pKi in data set [1] was 6.39. Further, in data set [2], the pKi is 7.59. Further, in data set [3], the pKi was 7.65.

The compound `O=C(N[C@H]1CC[C@H](CCN2CCN(c3nccc4c3CCO4)CC2)CC1)C1CCOCC1` [Example 33, trans-N-(4-{2-[4-(2,3-Dihydrofuro[3,2-c]pyridin-4-yl)-piperazin-1-yl]-ethyl}-cyclohexyl)-tetrahydro-2H-pyran-4-carboxamide] yielded a melting point of 263 °C. Besides, in data set [1], the pKi was 6.30. Besides, the pKi in data set [2] is 7.42. For the same compound, the negative logarithm of the Ki (pKi) in data set [3] (setting [4]) was 8.23.

`CC(=O)N[C@H]1CC[C@H](CCN2CCN(c3ncc(C)c4c3CCO4)CC2)CC1` [Example 108, trans-N-(4-{2-[4-(7-Methyl-2,3-dihydro-furo[3,2-c]pyridin-4-yl)-piperazin-1-yl]-ethyl}-cyclohexyl)-acetamide] yielded a melting point of 196.5 °C. Also, the pKi in data set [1] was 5.64. The negative logarithm of the Ki (pKi) in data set [2] is 7.32. Also, the pKi in data set [3] (setting [4]) was 7.17.

Compound `CN(C)C(=O)N[C@H]1CC[C@H](CCN2CCN(c3nccc4c3CCO4)CC2)CC1` [Example 78, trans-3-(4-{2-[4-(2,3-Dihydro-furo[3,2-c]pyridin-4-yl)-piperazin-1-yl]-ethyl}-cyclohexyl)-1,1-dimethyl-urea] gave a melting point of 260 °C. Also, in data set [1], the negative logarithm of the Ki (pKi) is 6.49. In addition, the pKi in data set [2] was 7.03. Also, in data set [3], the negative logarithm of the Ki (pKi) was 7.54.

With `Cc1cc2occc2c(N2CCN(CC[C@H]3CC[C@H](NC(=O)CC4CCOCC4)CC3)CC2)n1` [Example 98, trans-N-(4-{2-[4-(6-Methyl-furo[3,2-c]pyridin-4-yl)-piperazin-1-yl]-ethyl}-cyclohexyl)-2-(tetrahydro-pyran-4-yl)-acetamide], the melting point was 212.5 °C. Also, the pKi in data set [1] was 6.19. The negative logarithm of the Ki (pKi) in data set [2] was 8.02. Moreover, the negative logarithm of the Ki (pKi) in data set [3] (setting [4]) is 7.12.

For `O=CN[C@H]1CC[C@H](CCN2CCN(c3nccc4c3CCO4)CC2)CC1` [Example 83, trans-N-(4-{2-[4-(2,3-Dihydro-furo[3,2-c]pyridin-4-yl)-piperazin-1-yl]-ethyl}-cyclohexyl)-formamide], the melting point is 170.5 °C. For the same compound, the pKi in data set [1] is 6.08. For the same compound, the pKi in data set [2] is 7.55. Besides, the negative-log Ki (pKi) in data set [3] (setting [4]) was 7.63.

For `COC(CCC(=O)N[C@H]1CC[C@H](CCN2CCN(c3nccc4c3CCO4)CC2)CC1)OC` [Example 114, trans-N-(4-{2-[4-(2,3-Dihydro-furo[3,2-c]pyridin-4-yl)-piperazin-1-yl]-ethyl}-cyclohexyl)-4,4-dimethoxy-butyramide], the melting point was determined as 205.5 °C. Moreover, the pKi in data set [1] was 5.63. Further, the pKi in data set [2] was 7.17. In data set [3] (setting [4]), the pKi is 7.74.

`C[C@]1(O)CC[C@H](C(=O)N[C@H]2CC[C@H](CCN3CCN(c4nccc5c4CCO5)CC3)CC2)CC1` [Example 54, trans-4-Hydroxy-4-methyl-cyclohexanecarboxylic acid trans-(4-{2-[4-(2,3-dihydro-furo[3,2-c]pyridin-4-yl)-piperazin-1-yl]-ethyl}-cyclohexyl)-amide] returned a melting point of 171 °C. Moreover, in data set [1], the pKi was 6.30. For the same compound, the negative logarithm of the Ki (pKi) in data set [2] was 7.29. The negative logarithm of the Ki (pKi) in data set [3] (setting [4]) was 7.90.

For the compound `COCCC(=O)N[C@H]1CC[C@H](CCN2CCN(c3nc(C)cc4occc34)CC2)CC1` [Example 99, trans-3-Methoxy-N-(4-{2-[4-(6-methyl-furo[3,2-c]pyridin-4-yl)-piperazin-1-yl]-ethyl}-cyclohexyl)-propionamide], the melting point is 158 °C. The pKi in data set [1] is 6.37. The negative logarithm of the Ki (pKi) in data set [2] is 8.32. Further, in data set [3] (setting [4]), the pKi was 7.06.

(Values after patent publication US8586579B2, “Anellated pyridine compounds” (Hoffmann-La Roche Inc., priority 2010, dated 2013).)
